In PubChem BioAssay (NCI):
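Results reflect a 48-hour exposure of cells in 96-well plates to compound at five concentrations. GI50: concentration for 50% inhibition of growth. TGI: concentration producing complete growth inhibition.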

Key:
Assay in all cases: NCI tumour cell line growth inhibition, 48 h
A549 NSCLC = test system: A549 NSCLC
COLO 205 colon = test system: COLO 205 colon
DU-145 prostate = test system: DU-145 prostate
HT29 colon = test system: HT29 colon
IGROV1 ovarian = test system: IGROV1 ovarian
LOX IMVI melanoma = test system: LOX IMVI melanoma
NCI-H23 lung = test system: NCI-H23 lung
OVCAR-5 ovarian = test system: OVCAR-5 ovarian
OVCAR-8 ovarian = test system: OVCAR-8 ovarian
UO-31 renal = test system: UO-31 renal

SMILES | GI50 (A549 NSCLC) | TGI (A549 NSCLC) | GI50 (COLO 205 colon) | TGI (COLO 205 colon) | GI50 (DU-145 prostate) | TGI (DU-145 prostate) | GI50 (HT29 colon) | TGI (HT29 colon) | GI50 (IGROV1 ovarian) | TGI (IGROV1 ovarian) | GI50 (LOX IMVI melanoma) | TGI (LOX IMVI melanoma) | GI50 (NCI-H23 lung) | TGI (NCI-H23 lung) | GI50 (OVCAR-5 ovarian) | TGI (OVCAR-5 ovarian) | GI50 (OVCAR-8 ovarian) | TGI (OVCAR-8 ovarian) | GI50 (UO-31 renal) | TGI (UO-31 renal)
COc1ccc(C2=Nn3c(nnc3-c3ccc(F)c(Cl)c3)SC2)cc1 | > 100 µM | > 100 µM | > 100 µM | > 100 µM | > 100 µM | > 100 µM | > 100 µM | > 100 µM | > 100 µM | > 100 µM | > 100 µM | > 100 µM | > 100 µM | > 100 µM | 84.6 µM | > 100 µM | > 100 µM | > 100 µM | > 100 µM | > 100 µM
CCCC(=O)Oc1ccc(/C(=C(\C)c2ccc(Cl)cc2)c2ccc(OCCN(CC)CC)cc2)cc1 | 2.58 µM | 6.91 µM | 1.82 µM | 3.66 µM | 3.46 µM | 12.4 µM | 1.85 µM | 4.06 µM | 6.99 µM | 21.6 µM | 1.85 µM | 3.4 µM | 3.69 µM | 15.6 µM | 4.84 µM | 19.7 µM | 3.43 µM | 11.9 µM | 1.43 µM | 3.11 µM
Nc1nc(N)nc(CCCCc2nc(N)nc(N)n2)n1 |  | > 100 µM |  | > 100 µM |  | > 100 µM |  | > 100 µM |  | > 100 µM |  | > 100 µM |  | > 100 µM |  | > 100 µM |  | > 100 µM |  | > 100 µM
C=C1C(=O)OC2CC1C(OC(=O)/C=C/c1ccccc1)C/C(C)=C/CC/C(C)=C/CCC2(C)O (stereo not given) |  | 3.19 µM |  | > 19.9 µM |  | 2.77 µM |  | 2.99 µM |  | 3.07 µM |  | 2.61 µM |  | 4.91 µM |  | 3.19 µM |  | 6.99 µM |  | 3 µM
